Reference: PubChem BioAssay (NCI)
Where “and” joins values, the source holds several entries; their conditions need not be identical. Equal values may be shown once.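 All cell lines were grown in 96-well plates and treated with compound for 48 hours. GI50: concentration for 50% inhibition of growth. Definition used: TGI = concentration required for complete inhibition of growth.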

How the values were obtained:
Assay in all cases: growth of human tumour cells (NCI), 48 h
HOP-62 NSCLC = test system: HOP-62 NSCLC
NCI/ADR-RES ovarian = test system: NCI/ADR-RES ovarian
HL-60(TB) leukemia = test system: HL-60(TB) leukemia
UACC-62 melanoma = test system: UACC-62 melanoma
SF-295 CNS = test system: SF-295 CNS
SK-MEL-2 melanoma = test system: SK-MEL-2 melanoma
RXF 393 renal = test system: RXF 393 renal
HCT-116 colon = test system: HCT-116 colon
LOX IMVI melanoma = test system: LOX IMVI melanoma
SW-620 colon = test system: SW-620 colon

SMILES | GI50 (HOP-62 NSCLC) | TGI (HOP-62 NSCLC) | GI50 (NCI/ADR-RES ovarian) | TGI (NCI/ADR-RES ovarian) | GI50 (HL-60(TB) leukemia) | TGI (HL-60(TB) leukemia) | GI50 (UACC-62 melanoma) | TGI (UACC-62 melanoma) | GI50 (SF-295 CNS) | TGI (SF-295 CNS) | GI50 (SK-MEL-2 melanoma) | TGI (SK-MEL-2 melanoma) | GI50 (RXF 393 renal) | TGI (RXF 393 renal) | GI50 (HCT-116 colon) | TGI (HCT-116 colon) | GI50 (LOX IMVI melanoma) | TGI (LOX IMVI melanoma) | GI50 (SW-620 colon) | TGI (SW-620 colon)
c1ccc2c(c1)CCCc1nnc3nc4ccccc4n3c1-2 | 4.73 µM | > 100 µM | 3.32 µM | 25.1 µM | 2.49 µM | 78.2 µM | 6.54 µM | > 100 µM | 9.01 µM | > 100 µM | 28.3 µM | > 100 µM | 3.08 µM | 32.7 µM | 3.35 µM | 13.8 µM | 2.61 µM | 10.9 µM | 5.06 µM | 24.2 µM
COc1ccc2c(c1)C(=O)CC(C(N)=O)C2 (stereo unspecified) |  | > 100 µM |  | > 100 µM |  | > 100 µM |  | > 100 µM |  | > 100 µM |  | > 100 µM |  | > 100 µM |  | > 100 µM |  | > 100 µM |  | > 100 µM
C/C=C1/CN2CCC34c5ccccc5N5C(=O)C(C6CC78c9ccccc9N9C(=O)C=CC(C%10CC7N6C/C%10=C/C)C98)=CC(C1CC23)C54 (stereo unspecified) |  | 20.5 µM and 23.3 µM | 2.57 µM | 50 µM and 10.4 µM | 2.7 µM | 1.36 µM and 10.2 µM | 10.9 µM | 14.4 µM and 23.6 µM | 15.9 µM | 19.6 µM and 32.7 µM | 12.3 µM | 13.5 µM and 25.5 µM |  | 8.57 µM | 2.3 µM | 12.1 µM and 5.45 µM |  | 26 µM | 3.32 µM | 5.45 µM and 11.8 µM
Nc1[nH]c(=S)[nH]c(=O)c1N=Nc1c(Br)cc(S(N)(=O)=O)cc1Br |  | > 100 µM |  | > 100 µM |  | > 100 µM |  | > 100 µM |  | > 100 µM |  | > 100 µM |  | > 100 µM |  | > 100 µM |  | > 100 µM |  | > 100 µM
Cn1cc(-c2[nH]c3cc(NC(=O)[C@H](N)C4CCCCC4)cc4c3c2C=NNC4=O)cn1 | 0.401 µM and 0.343 µM | 12.3 µM and > 10 µM | 9.8 µM | > 74.4 µM | 0.292 µM and 0.296 µM | 0.775 µM and > 4.21 µM | 0.484 µM and 0.704 µM | 18.7 µM and > 10 µM | 0.273 µM and 0.318 µM |  | 0.262 µM | > 10 µM | 0.104 µM and 0.187 µM | 0.502 µM and 0.745 µM | 0.399 µM and 0.561 µM | 10.9 µM and > 10 µM | 0.305 µM and 0.268 µM | 3.52 µM and 1.66 µM | 0.53 µM and 0.829 µM | 13.6 µM and > 10 µM
CNC(=O)c1cc(Oc2ccc(NC(=O)Nc3ccc(Cl)c(C(F)(F)F)c3)cc2)ccn1 | 2.78 µM and 2.59 µM and 2.01 µM | > 10 µM and 7.97 µM and 4.81 µM | 3.06 µM and 2.63 µM and 2.65 µM | > 10 µM and 7.89 µM and 15.7 µM | 0.703 µM and 1.53 µM | 3.8 µM and 14.1 µM | 2.4 µM and 1.96 µM and 1.7 µM | 8.52 µM and 5.23 µM and 4.49 µM | 2.34 µM and 1.83 µM and 1.69 µM | > 10 µM and 5.33 µM and 4.56 µM | 1.16 µM and 1.31 µM and 1.77 µM | 3.57 µM and 2.93 µM and 6.22 µM | 3.58 µM and 2.88 µM and 3.41 µM | > 10 µM and 9.26 µM and 9.86 µM | 1.74 µM and 1.5 µM and 1.9 µM | > 10 µM and 4.21 µM and 7.48 µM | 2.52 µM and 1.5 µM and 1.67 µM | > 10 µM and 3.3 µM and 4.31 µM | 4.26 µM and 3.05 µM and 2.87 µM | > 10 µM and 12 µM and 9.35 µM
CC1NCCC(CC(=O)O)C1CC(=O)O (stereo unspecified) |  | > 100 µM |  | > 100 µM |  | > 100 µM |  | > 100 µM |  | > 100 µM |  | > 100 µM |  | > 100 µM |  | > 100 µM |  | > 100 µM |  | > 100 µM
O=C(Nc1ccc(-c2cn3ccccc3n2)cc1)c1cc(Br)ccc1O |  | > 100 µM |  | > 100 µM |  | > 100 µM |  | > 100 µM |  | > 100 µM |  | > 100 µM |  | > 100 µM |  | > 100 µM |  | > 100 µM |  | > 100 µM
